Experimental data as given in ChEMBL document CHEMBL3046330, “Synthesis and biological activity of hydrazidehydrazones and their corresponding 3-acetyl-2,5-disubstituted-2,3-dihydro-1,3,4-oxadiazoles” (Med Chem Res, 2012).
≈ marks a conversion by molar mass, not a printed value. Calls of active or inactive are those of the source. The rule behind the calls is not given here.

Tests used:
[1] = biological target: T1, Nitric oxide synthase, inducible (Mus musculus) (UniProt P29477); experiment: Inhibition of iNOS in Mus musculus (mouse) RAW264.7 cells assessed as inhibition of LPS-induced nitrite production up to 25 ug/ml incubated for 30 min prior to LPS challenge measured after 24 hr by Griess assay relative to vehicle-treated control; format: cell-based
T1 sequence (whole entry): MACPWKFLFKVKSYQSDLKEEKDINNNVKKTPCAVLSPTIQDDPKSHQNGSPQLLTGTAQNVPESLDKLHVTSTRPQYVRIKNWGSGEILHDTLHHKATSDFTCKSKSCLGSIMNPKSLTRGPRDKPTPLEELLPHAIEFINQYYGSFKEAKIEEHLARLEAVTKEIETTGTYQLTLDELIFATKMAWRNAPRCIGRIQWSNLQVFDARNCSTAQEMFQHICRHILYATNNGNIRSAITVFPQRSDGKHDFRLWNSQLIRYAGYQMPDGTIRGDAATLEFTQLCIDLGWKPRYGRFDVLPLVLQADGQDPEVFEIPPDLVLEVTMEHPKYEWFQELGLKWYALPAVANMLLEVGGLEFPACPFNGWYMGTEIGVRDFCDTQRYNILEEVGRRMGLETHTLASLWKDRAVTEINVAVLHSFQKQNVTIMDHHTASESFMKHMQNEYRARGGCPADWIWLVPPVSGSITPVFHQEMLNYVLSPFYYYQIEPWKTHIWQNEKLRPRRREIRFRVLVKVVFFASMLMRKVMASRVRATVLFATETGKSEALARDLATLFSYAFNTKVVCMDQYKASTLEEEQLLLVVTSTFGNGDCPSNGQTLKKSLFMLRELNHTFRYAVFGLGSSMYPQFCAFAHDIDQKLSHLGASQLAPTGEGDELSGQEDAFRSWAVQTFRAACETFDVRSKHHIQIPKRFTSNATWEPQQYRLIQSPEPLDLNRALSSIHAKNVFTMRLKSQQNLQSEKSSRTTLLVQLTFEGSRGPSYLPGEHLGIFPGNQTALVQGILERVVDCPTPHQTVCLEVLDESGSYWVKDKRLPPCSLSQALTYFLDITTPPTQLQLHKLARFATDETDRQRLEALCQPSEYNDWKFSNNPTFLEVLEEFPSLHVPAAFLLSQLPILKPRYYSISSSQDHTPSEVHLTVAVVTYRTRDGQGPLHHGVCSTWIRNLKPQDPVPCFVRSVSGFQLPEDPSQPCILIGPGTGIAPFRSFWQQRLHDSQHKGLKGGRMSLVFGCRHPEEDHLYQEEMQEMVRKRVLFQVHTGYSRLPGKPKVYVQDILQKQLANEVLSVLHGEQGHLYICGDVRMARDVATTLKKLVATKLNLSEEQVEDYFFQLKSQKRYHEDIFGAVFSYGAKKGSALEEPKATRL

RAW264.7 = experiment: Cytotoxicity against Mus musculus (mouse) RAW264.7 cells up to 25 ug/ml; format: cell-based
HL-60 [2] = experiment: Antioxidant activity in PMA-stimulated Homo sapiens (human) HL60 cells assessed as inhibition of intracellular ROS generation up to 25 ug/ml incubated for 30 min prior to PMA stimulation measured after 30 min by DCFH-DA assay relative to vehicle-treated control; format: functional, cell-based
HL-60 [3] = experiment: Cytotoxicity against Homo sapiens (human) HL60 cells up to 25 ug/ml; format: cell-based
Vero = experiment: Cytotoxicity against Chlorocebus aethiops (African green monkey) Vero cells assessed as cell viability up to 25 ug/ml after 48 hr by neutral red assay; format: cell-based; conditions: chlorocebus sabaeus
[4] = Cytotoxicity against Sus scrofa (pig) LLC-PK11 cells assessed as cell viability up to 25 ug/ml after 48 hr by neutral red assay; format: cell-based; conditions: llc-pk11, 48 h
SK-MEL = experiment: Cytotoxicity against Homo sapiens (human) SK-MEL cells assessed as cell viability up to 25 ug/ml after 48 hr by neutral red assay; format: functional, cell-based
KB = experiment: Cytotoxicity against Homo sapiens (human) KB cells assessed as cell viability up to 25 ug/ml after 48 hr by neutral red assay; format: functional, cell-based
BT-549 = experiment: Cytotoxicity against Homo sapiens (human) BT549 cells assessed as cell viability up to 25 ug/ml after 48 hr by neutral red assay; format: functional, cell-based
Candida albicans [5] = experiment: Antifungal activity against Candida albicans NRRL Y-12983 after 24 hr by NCCLS broth microdilution method; format: functional; conditions: NRRL Y-12983, 24 h
Nakaseomyces glabratus = experiment: Antifungal activity against Candida glabrata clinical isolate after 24 hr by NCCLS broth microdilution method; format: functional
Candida parapsilosis = experiment: Antifungal activity against Candida parapsilosis NRRL Y-12696 after 24 hr by NCCLS broth microdilution method; format: functional; conditions: Lodderomyces parapsilosis, NRRL Y-12696, 24 h
Pichia kudriavzevii = experiment: Antifungal activity against Pichia kudriavzevii NRRL Y-7179 after 24 hr by NCCLS broth microdilution method; format: functional; conditions: NRRL Y-7179, 24 h
Candida tropicalis [6] = experiment: Antifungal activity against Candida tropicalis NRRL Y-12968 after 24 hr by NCCLS broth microdilution method; format: functional; conditions: NRRL Y-12968, 24 h
Cyberlindnera jadinii = experiment: Antifungal activity against Cyberlindnera jadinii NRRL Y-900 after 24 hr by NCCLS broth microdilution method; format: functional; conditions: Williopsis jadinii, NRRL Y-900, 24 h
Candida albicans [7] = experiment: Antifungal activity against Candida albicans ATCC 90028 after 24 hr by NCCLS broth microdilution method; format: functional; conditions: ATCC 90028, 24 h
Candida albicans [8] = experiment: Antifungal activity against Candida albicans clinical isolate after 24 hr by NCCLS broth microdilution method; format: functional
Candida tropicalis [9] = experiment: Antifungal activity against Candida tropicalis NRRL Y-12968 at 2000 ug/ml by agar diffusion method; format: functional; conditions: read-out: IZ
Candida albicans [10] = experiment: Antifungal activity against Candida albicans clinical isolate at 2000 ug/ml by agar diffusion method; format: functional; conditions: read-out: IZ
Transcription factor Sp1 = Transcription factor Sp1 (Homo sapiens, UniProt P08047); experiment: Inhibition of Sp1 (unknown origin) up to 25 ug/ml by luciferase reporter gene assay
Transcription factor Sp1, sequence (P08047 whole entry): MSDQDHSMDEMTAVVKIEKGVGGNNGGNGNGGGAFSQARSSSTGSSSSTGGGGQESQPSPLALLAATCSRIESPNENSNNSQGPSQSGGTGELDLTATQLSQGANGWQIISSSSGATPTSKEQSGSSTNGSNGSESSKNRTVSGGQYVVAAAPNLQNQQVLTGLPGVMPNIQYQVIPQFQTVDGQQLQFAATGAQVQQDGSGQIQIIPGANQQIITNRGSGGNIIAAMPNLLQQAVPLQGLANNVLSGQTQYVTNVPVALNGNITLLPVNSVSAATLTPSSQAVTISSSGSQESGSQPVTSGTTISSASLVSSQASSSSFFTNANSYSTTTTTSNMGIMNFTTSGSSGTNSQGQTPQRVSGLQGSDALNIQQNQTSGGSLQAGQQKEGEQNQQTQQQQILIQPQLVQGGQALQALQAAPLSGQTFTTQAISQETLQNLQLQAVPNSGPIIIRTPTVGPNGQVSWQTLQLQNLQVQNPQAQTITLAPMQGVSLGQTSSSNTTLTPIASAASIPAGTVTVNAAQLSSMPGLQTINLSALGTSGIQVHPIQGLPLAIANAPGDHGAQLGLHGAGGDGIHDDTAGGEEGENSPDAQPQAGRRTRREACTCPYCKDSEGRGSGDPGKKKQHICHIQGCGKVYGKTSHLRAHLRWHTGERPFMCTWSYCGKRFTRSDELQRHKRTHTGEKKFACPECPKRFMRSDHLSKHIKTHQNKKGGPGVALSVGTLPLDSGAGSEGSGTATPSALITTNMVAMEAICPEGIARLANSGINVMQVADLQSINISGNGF

SW1353 = experiment: Inhibition of PMA-induced NFkappaB activity in Homo sapiens (human) SW1353 cells up to 25 ug/ml incubated for 30 min followed by PMA induction for 8 hr by luciferase reporter gene assay; format: cell-based
SK-OV-3 = experiment: Cytotoxicity against Homo sapiens (human) SKOV3 cells assessed as cell viability up to 25 ug/ml after 48 hr by neutral red assay; format: functional, cell-based
Colletotrichum fragariae = experiment: Antifungal activity against Colletotrichum fragariae at 0.3 to 30 uM after 48 to 72 hr by broth microdilution method; format: functional, organism-based
Botrytis cinerea = experiment: Antifungal activity against Botryotinia fuckeliana at 0.3 to 30 uM after 48 to 72 hr by broth microdilution method; format: functional, organism-based
[11] = biological target: T2, Nitric oxide synthase, inducible (Mus musculus, UniProt P29477); experiment: Inhibition of iNOS in Mus musculus (mouse) RAW264.7 cells assessed as inhibition of LPS-induced nitrite production incubated for 30 min prior to LPS challenge measured after 24 hr by Griess assay; format: cell-based
T2 sequence (P29477 whole entry): T1 sequence (whole entry)

HL-60 [12] = experiment: Cytotoxicity against Homo sapiens (human) HL60 cells; format: cell-based

| SMILES | Activity (RAW264.7) | inhibition (HL-60 [2]) | Activity (HL-60 [3]) | Activity (Vero) | Activity [4] | Activity (SK-MEL) | Activity (KB) | Activity (BT-549) | MIC (Candida albicans [5]) | MIC (Nakaseomyces glabratus) | MIC (Candida parapsilosis) | MIC (Pichia kudriavzevii) | MIC (Candida tropicalis [6]) | MIC (Cyberlindnera jadinii) | MIC (Candida albicans [7]) | MIC (Candida albicans [8]) | zone of inhibition at 2000 µg/mL (Candida tropicalis [9]) | zone of inhibition at 2000 µg/mL (Candida albicans [10]) | inhibition (INH) (Transcription factor Sp1) | inhibition (SW1353) | further results |
| --- | --- | --- | --- | --- | --- | --- | --- | --- | --- | --- | --- | --- | --- | --- | --- | --- | --- | --- | --- | --- | --- |
| CC(=O)N1N=C(c2ccc(F)cc2)OC1c1ccc(F)cc1 (stereo unspecified) | Non-toxic | inactive | Non-toxic | Not Active | Not Active | inactive | inactive | inactive | 500 mg/L (≈ 1650 µM) | 500 mg/L (≈ 1650 µM) | 500 mg/L (≈ 1650 µM) | 500 mg/L (≈ 1650 µM) | 500 mg/L (≈ 1650 µM) | 500 mg/L (≈ 1650 µM) | 500 mg/L (≈ 1650 µM) | 500 mg/L (≈ 1650 µM) | 9 mm | 9 mm | Not Active | inactive | inhibition [1]: inactive; Activity (SK-OV-3): inactive |
| CC(=O)N1N=C(c2ccc(F)cc2)OC1c1ccc(Br)cc1 (stereo unspecified) | Non-toxic | inactive | Non-toxic | Not Active | Not Active | inactive | inactive | inactive | 500 mg/L (≈ 1380 µM) | 500 mg/L (≈ 1380 µM) | 500 mg/L (≈ 1380 µM) | 500 mg/L (≈ 1380 µM) | 250 mg/L (≈ 688 µM) | 500 mg/L (≈ 1380 µM) | 1000 mg/L (≈ 2750 µM) | 250 mg/L (≈ 688 µM) | 9 mm | 9 mm | Not Active | inactive | Activity (Colletotrichum fragariae): inactive; Activity (Botrytis cinerea): inactive; Activity (SK-OV-3): inactive; IC50 [11]: > 68.8 µM |
| CC(=O)N1N=C(c2ccc(F)cc2)OC1/C=C/c1ccc(N(C)C)cc1 (stereo unspecified) | Non-toxic | inactive | Non-toxic | Not Active | Not Active | inactive | inactive | inactive | 500 mg/L (≈ 1410 µM) | 500 mg/L (≈ 1410 µM) | 250 mg/L (≈ 707 µM) | 125 mg/L (≈ 354 µM) | 125 mg/L (≈ 354 µM) | 250 mg/L (≈ 707 µM) | 500 mg/L (≈ 1410 µM) | 500 mg/L (≈ 1410 µM) | 9 mm | 9 mm | Not Active | inactive | inhibition [1]: inactive; Activity (SK-OV-3): inactive |
| CC(=O)N1CCN(c2ccc(OCC3COC(Cn4ccnc4)(c4ccc(Cl)cc4Cl)O3)cc2)CC1 (stereo unspecified) [KETOCONAZOLE] |  |  |  |  |  |  |  |  | 125 mg/L (≈ 235 µM) | 31 mg/L (≈ 58.3 µM) | 125 mg/L (≈ 235 µM) | 62 mg/L (≈ 117 µM) | 62 mg/L (≈ 117 µM) | 62 mg/L (≈ 117 µM) | 62 mg/L (≈ 117 µM) | 16 mg/L (≈ 30.1 µM) |  |  |  |  |  |
| COc1ccc(C2OC(c3ccc(F)cc3)=NN2C(C)=O)cc1 (stereo unspecified) | Non-toxic | inactive | Non-toxic | Not Active | Not Active | inactive | inactive | inactive | 500 mg/L (≈ 1590 µM) | 250 mg/L (≈ 795 µM) | 500 mg/L (≈ 1590 µM) | 500 mg/L (≈ 1590 µM) | 500 mg/L (≈ 1590 µM) | 250 mg/L (≈ 795 µM) | 500 mg/L (≈ 1590 µM) | 250 mg/L (≈ 795 µM) | 9 mm | 9 mm | Not Active | inactive | inhibition [1]: inactive; Activity (SK-OV-3): inactive |
| COc1cccc2c1C(=O)c1c(O)c3c(c(O)c1C2=O)C[C@@](O)(C(=O)CO)C[C@@H]3O[C@H]1C[C@H](N)[C@H](O)[C@H](C)O1 [DOXORUBICIN] |  |  |  |  |  |  |  |  |  |  |  |  |  |  |  |  |  |  |  |  | IC50 (HL-60 [12]): 0.16 mg/L (≈ 0.294 µM) |
| CN(C)c1ccc(/C=C/C=N/NC(=O)c2ccc(F)cc2)cc1 | Non-toxic | inactive | Non-toxic | Not Active | Not Active | inactive | inactive | inactive | 500 mg/L (≈ 1610 µM) | 500 mg/L (≈ 1610 µM) | 500 mg/L (≈ 1610 µM) | 500 mg/L (≈ 1610 µM) | 500 mg/L (≈ 1610 µM) | 500 mg/L (≈ 1610 µM) | 500 mg/L (≈ 1610 µM) | 500 mg/L (≈ 1610 µM) | 9 mm | 9 mm | Not Active | inactive | inhibition [1]: inactive; Activity (SK-OV-3): inactive |
